Test results published in ChEMBL document CHEMBL5143637, “Design, synthesis and antibacterial activity against pathogenic mycobacteria of conjugated hydroxamic acids, hydrazides and O-alkyl/O-acyl protected hydroxamic derivatives” (Bioorg Med Chem Lett, 2022).
Values after ≈ are worked out from the molar mass of the structure shown.

Test system: Mycobacterium tuberculosis variant bovis
Assay: Antimycobacterial activity against Mycobacterium bovis BCG assessed as inhibition of bacterial growth incubated for 4 days by alamar blue assay
Format: functional
Settings: 96 h, time 4 day

CCCC[C@H](CN(O)C=O)C(=O)N1CCC[C@H]1C(=O)Nc1ccccn1
MIC: 0.2 µg/mL (≈ 0.552 µM)
